# Test system: Human T cells transfected with reprogramming plasmids
# Test: T cell reprogramming efficiency, flow cytometry of iPSC surface markers
# Assay type: cell-based
# Details: VPA from around day 2-3 post transfection; three T cell donors; versus no VPA
# Method: Flow Cytometry Analysis and Sorting Single cell dissociated reprogramming pools were resuspended in chilled staining buffer. Conjugated primary antibodies, including SSEA4-FITC, TRA181-Alexa Fluor-647 and CD30-PE (BD Biosciences), were added to the cell solution and incubated on ice for 15 min. All antibodies were used at 7-10 μL in 100 μL staining buffer per million cells. The resuspended dissociated single cells in staining buffer were spun down and resuspended in staining buffer now containing a ROCK inhibitor and maintained on ice for flow cytometry sorting. Flow cytometry sorting was performed on FACS Aria II (BD Biosciences). The sorted cells were directly ejected into 96-well plates at concentrations of 3 and 9 events per well. Each well was prefilled with FMM2. Upon completion of the sort, 96-well plates were incubated for colony formation and expansion. Seven to ten days post sort, the cells were passaged. Subsequent passages in FMM2 were done routinely upon 75-90% confluency. Flow cytometry analysis was performed on Guava EasyCyte 8 HT (Millipore) and analyzed using FCS Express 4 (De Novo Software). Human T cells from three different donors were transfected with the above reprogramming plasmids on day 0. […] The expression of iPSC surface markers (SSEA4, TRA-1-81, and CD30) was analyzed by flow cytometry.
smiles,measurement,value
"CCCC(CCC)C(=O)O [VPA, valproic acid]",percentage of SSEA4+TRA-1-81+CD30+ iPSC cells in the population,significantly increased
